The values that follow are results of earlier work, collected in article PMC3437650 (Bioorganic & medicinal chemistry letters, 2008).

This series deals with BBB choline transporter. The note with it: ref 11b.

Regarding “N,N’-(1,12-dodecandiyl)-bis-pyridinium dibromide [bPiDDB]”, the “share of permeation into brain that uses the BBB choline transporter” value is listed as ~ 90%.
